Measured values as given in patent publication US10149838B2, “Small molecule securinine and norsecurinine analogs and their use in inhibiting myeloperoxidase” (MiRx Pharmaceuticals, LLC, priority 2013, dated 2018).

Columns and labels:
MPO [1] = biological target: T1, MPO (Homo sapiens, UniProt P05164); assay: Myeloperoxidase Inhibitor Screening Assay Kit (Cayman Chemical), chlorination activity; type: biochemical; set-up: purchased Cayman Chemical 700170; concentration or dose not given beside the values; conditions: Table 1; MPO inhibitory activity
T1 sequence (P05164 49-745): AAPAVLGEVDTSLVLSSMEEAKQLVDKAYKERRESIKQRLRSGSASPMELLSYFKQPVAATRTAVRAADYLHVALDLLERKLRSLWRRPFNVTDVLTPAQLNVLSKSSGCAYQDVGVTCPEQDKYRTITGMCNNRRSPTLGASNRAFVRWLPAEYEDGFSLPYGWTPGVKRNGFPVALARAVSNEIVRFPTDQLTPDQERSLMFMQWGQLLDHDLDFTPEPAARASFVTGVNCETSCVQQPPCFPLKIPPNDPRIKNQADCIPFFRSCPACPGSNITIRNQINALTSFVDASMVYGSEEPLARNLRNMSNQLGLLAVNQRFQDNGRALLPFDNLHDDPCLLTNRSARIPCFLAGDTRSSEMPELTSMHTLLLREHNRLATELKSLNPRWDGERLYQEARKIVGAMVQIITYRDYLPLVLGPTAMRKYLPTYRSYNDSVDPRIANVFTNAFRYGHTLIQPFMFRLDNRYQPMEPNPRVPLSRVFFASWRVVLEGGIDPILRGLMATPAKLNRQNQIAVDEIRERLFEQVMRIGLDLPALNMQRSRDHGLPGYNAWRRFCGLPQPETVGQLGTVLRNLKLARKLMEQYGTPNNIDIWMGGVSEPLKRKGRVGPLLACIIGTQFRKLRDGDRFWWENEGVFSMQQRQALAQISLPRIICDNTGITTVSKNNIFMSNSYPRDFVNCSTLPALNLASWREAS
Description: The columns are represented as follows: A: Blank; B: Commercial inhibitor; C; Another commercial inhibitor (sc-204107); D: Securinine; E: INVS-MG-98B, F: 14-Iodosecurinine; G; INVS-MG-106B.
The analogs described herein were contacted against MPO and the biological activity was assessed. Tables 1 and 2 show representative biological activity examples and that the listed compounds are potent inhibitors of MPO, specifically that the analogs inhibit chlorination activity. The compounds were tested for MPO inhibitory activity using the Myeloperoxidase Inhibitor Screening Assay Kit (Cayman Chemical Cat #700170) as described in the manufacturers manual
Studies were then aimed at establishing dose dependent relative chlorination activity results of securinine and norsecurinine analogs. As depicted in FIG. 4, the analogs of the present invention were extremely potent in inhibiting chlorination.

some cell lines = assay: MTT cell survival assay (Roche), cell lines not specified; type: cell-based; conditions: cell culture conditions
Excerpt: The securinine analog MPO inhibitors have favorable in vitro and in vivo toxicity profiles.

MPO [2] = biological target: T1, MPO; assay: Biotin pull-down with streptavidin magnetic beads from HL60 cells, SDS-PAGE, MS and western blot; type: binding; set-up: endogenous in cells; host or cells: HL60; conditions: 10 μM, 2 hr, biotin-conjugated
Description: Only MPO (red) and H2O2 promoted a shift in the Soret peak, formation of a new band at 630 nm (blue).
It was next set about to investigate the molecular target of the analogs (FIG. 6A). Cultured HL60 cells were treated with either Biotin/Biotin-INVMG1 (securinine) (10 μM) for 2 hr and pull-down experiments using streptavidin magnetic beads were used to pulldown bound molecules, followed by SDS-PAGE analysis (FIG. 6B). […] This 80 kDa protein band was excised, digested with trypsin, and the tryptic digests then analyzed using Mass Spectroscopy. […] The proteins bound to streptavidin beads were next separated using SDS-PAGE and incubated then with anti-human MPO antibody. […] To further confirm the binding of INVMG1 to MPO, the MPO enzyme was incubated with and without INVMG184B/H2O2, and analyzed absorption maxima using UV/visible.

| SMILES | % Activity (MPO [1]) [%] | other results |
| --- | --- | --- |
| O=C1C=C2C[C@H](SCC(F)(F)F)[C@@H]3C[C@@]2(O1)[C@H]1CCCCN31 (stereo in doubt) [5B] | 83 | – |
| CC(C)CSC1CC2=CC(=O)O[C@@]23C[C@@H]1N1CCCC[C@@H]13 (stereo in doubt) [57A] | 86 | – |
| CC(C)CS[C@H]1CC2=CC(=O)O[C@@]23C[C@@H]1N1CCCC[C@@H]13 (stereo in doubt) [57B] | 2 | – |
| O=C1C=C2CC(SC34CC5CC(CC(C5)C3)C4)[C@@H]3C[C@@]2(O1)[C@H]1CCCCN31 (stereo partly drawn) [4A] | 1 | – |
| O=C1CC2(SCC(F)(F)F)CC(SCC(F)(F)F)[C@@H]3C[C@@]2(O1)[C@H]1CCCCN31 (stereo partly drawn) [5A] | 78 | – |
| O=C1C=C2CC(N3CCC(F)(F)C3)[C@@H]3C[C@@]2(O1)[C@H]1CCCCN31 (stereo partly drawn) [9A] | 46 | – |
| O=C1C=C2CC(SCC3CCCCCC3)[C@@H]3C[C@@]2(O1)[C@H]1CCCCN31 (stereo partly drawn) [16A] | 91 | – |
| CCCCCCCSC1CC2=CC(=O)O[C@@]23C[C@@H]1N1CCCC[C@@H]13 (stereo partly drawn) [19A] | 38 | – |
| CCN(CC)CCSC1CC2=CC(=O)O[C@@]23C[C@@H]1N1CCCC[C@@H]13 (stereo partly drawn) [21B] | 30 | – |
| O=C1C=C2CC(NCC3CC3)[C@@H]3C[C@@]2(O1)[C@H]1CCCCN31 (stereo partly drawn) [25B] | 99 | – |
| O=C1C=C2CC(NC3CC3)[C@@H]3C[C@@]2(O1)[C@H]1CCCCN31 (stereo partly drawn) [26A] | 83 | – |
| O=C1C=C2CC(NC3CCCC3)[C@@H]3C[C@@]2(O1)[C@H]1CCCCN31 (stereo partly drawn) [27B] | 46 | – |
| O=C1C=C2CC(NC3CCCCC3)[C@@H]3C[C@@]2(O1)[C@H]1CCCCN31 (stereo partly drawn) [28B] | 86 | – |
| O=C1C=C2CC(NC3CCCCCC3)[C@@H]3C[C@@]2(O1)[C@H]1CCCCN31 (stereo partly drawn) [29A] | 1 | – |
| O=C1C=C2CC(NC3CCCCCCC3)[C@@H]3C[C@@]2(O1)[C@H]1CCCCN31 (stereo partly drawn) [30A] | 78 | – |
| CC(C)SC1CC2=CC(=O)O[C@@]23C[C@@H]1N1CCCC[C@@H]13 (stereo partly drawn) [37B] | 97 | – |
| O=C1C=C2CC(NC3CC(O)C3)[C@@H]3C[C@@]2(O1)[C@H]1CCCCN31 (stereo partly drawn) [46B] | 99 | – |
| CCCSC1CC2=CC(=O)O[C@@]23C[C@@H]1N1CCCC[C@@H]13 (stereo partly drawn) [58C] | 30 | – |
| CO[C@H]1CC2=CC(=O)O[C@@]23C[C@@H]1N1CCCC[C@@H]13 [97-IIB] | 97 | – |
| CCCN(CC#CC1=C[C@@H]2C[C@@]3(OC(=O)C=C13)[C@H]1CCCCN21)CCC [152A] | 18 | – |
| COc1ccc2cc(C#CC3=C[C@@H]4C[C@@]5(OC(=O)C=C35)[C@H]3CCCCN43)ccc2c1 [157B] | 80 | – |
| O=C1C=C2C(C#Cc3cccs3)=C[C@@H]3C[C@@]2(O1)[C@H]1CCCCN31 [170B] | 64 | – |
| C#CC1=C[C@@H]2C[C@@]3(OC(=O)C=C13)[C@H]1CCCCN21 [207A] | 99 | – |
| COc1cc(C#CC2=C[C@@H]3C[C@@]4(OC(=O)C=C24)[C@H]2CC[C@H](C(OC)OC)N32)cc(OC)c1 [222B] | 70 | – |
| O=C1C=C2CC(SCc3cccs3)[C@@H]3C[C@@]2(O1)[C@H]1CCCCN31 (stereo partly drawn) [INVS-MG-14B] | 83 | – |
| O=C1C=C2C=C[C@@H]3C[C@@]2(O1)[C@H]1CCCCN31 [MA1] | – | in vitro toxicity (cell survival) (some cell lines): higher toxicity effect on some cell lines |
| O=C(CCCC[C@@H]1SC[C@@H]2NC(=O)N[C@@H]21)NCCS[C@H]1CC2=CC(=O)O[C@@]23C[C@@H]1N1CCCC[C@@H]13 [SEC- BIO] | 32 | – |
| NCCSC1CC2=CC(=O)O[C@@]23C[C@@H]1N1CCCC[C@@H]13 (stereo partly drawn) [compound 105] | 99 | – |
| O=C1C=C2C=C[C@@H]3C[C@@]2(O1)[C@H]1CCCCN31 [securinine, Securinine] | 32 | binding to MPO in pull-down (MPO [2]): revealed the binding of MPO |
